Results taken from patent publication US20070066674A1, “Tricyclic imidzopyridines for use as gastric secretion inhibitors” (Altana Pharma AG, priority 2003, published 2007).

system: pentagastrin-stimulated acid secretion of the perfused rat stomach; assay: Secretion-inhibiting action on the perfused rat stomach; assay type: in vivo; conditions: dose 1 μmol/kg i.d., anesthetized CD rat, intraduodenal administration
From the text: In Table A which follows, the influence of the compounds of the formula 1 according to the invention and of their optical antipodes of the formula 2 on the pentagastrin-stimulated acid secretion of the perfused rat stomach after intraduodenal administration in vivo is shown.
The abdomen of anesthetized rats (CD rat, female, 200-250 g; 1.5 g/kg i.m. urethane) was opened after tracheotomy by a median upper abdominal incision and a PVC catheter was fixed transorally in the esophagus and another via the pylorus such that the ends of the tubes just projected into the gastric lumen. The catheter leading from the pylorus led outward into the right abdominal wall through a side opening.
After thorough rinsing (about 50-100 ml), warm (37° C.) physiological NaCl solution was continuously passed through the stomach (0.5 ml/min, pH 6.8-6.9; Braun-Unita I). The pH (pH meter 632, glass electrode EA 147; φ=5 mm, Metrohm) and, by titration with a freshly prepared 0.01 N NaOH solution to pH 7 (Dosimat 665 Metrohm), the secreted HCl were determined in the effluent in each case collected at an interval of 15 minutes.
The gastric secretion was stimulated by continuous infusion of […] (=1.65 ml/h) of i.v. pentagastrin (left femoral vein) about 30 min after the end of the operation (i.e. after determination of 2 preliminary fractions). The substances to be tested were administered intraduodenally in a 2.5 ml/kg liquid volume 60 min after the start of the continuous pentagastrin infusion. The body temperature of the animals was kept at a constant 37.8-38° C. by infrared irradiation and heat pads (automatic, stepless control by means of a rectal temperature sensor).

Row | SMILES | Inhibition of acid secretion (%)
1 | Cc1nc2c3c(c(C(=O)N(C)C)cn2c1C)CC[C@@H](c1ccccc1)O3.O=C(O)C(O)C(O)C(=O)O [Example 1, (9S)-2,3-Dimethyl-9-phenyl-7H8,9dihydro-pyrano[2,3-c]-imidazo[1,2-a]pyridine-6-carboxylic acid dimethylamide (R,R)-tartrate] | 100%
2 | Cc1nc2c3c(c(C(=O)N(C)C)cn2c1C)CC[C@@H](c1ccccc1)O3 [Example 2, (9S)-2,3-Dimethyl-9-phenyl-7H-8,9-dihydro-pyrano[2,3c]-imidazo[1,2-a]pyridine-6-carboxylic acid dimethylamide] | 100%
3 | CNC(=O)c1cn2c(C)c(C)nc2c2c1CC[C@@H](c1ccccc1)O2 [Example 7, (9S)-2,3-Dimethyl-9-phenyl-7H-8,9-dihydro-pyrano[2,3-c]-imidazo[1,2-a]pyridine-6-carboxylic acid methylamide] | 100%
4 | Cc1ccccc1[C@@H]1CCc2c(C(=O)N(C)C)cn3c(C)c(C)nc3c2O1 [Example 9, (9S)-2,3-Dimethyl-9-(2-methylphenyl)-7H-8,9-dihydro-pyrano[2,3-c]-imidazo[1,2-a]pyridine-6-carboxylic acid dimethylamide] | 100%
5 | Cc1nc2c3c(c(C(=O)N(C)C)cn2c1C)CC[C@@H](c1ccccc1F)O3 [Example 10, (9S)-9-(2-Fluorophenyl)-2,3-dimethyl-7H-8,9-dihydro-pyrano[2,3-c]-imidazo[1,2-a]pyridine-6-carboxylic acid dimethylamide] | 100%
6 | Cc1nc2c3c(c(C(=O)N(C)C)cn2c1C)CC[C@@H](c1ccc(F)cc1)O3 [Example 11, (9S)-9-(4-Fluorophenyl)-2,3-dimethyl-7H-8,9-dihydro-pyrano[2,3-c]-imidazo[1,2-a]pyridine-6-carboxylic acid dimethylamide] | 100%
7 | Cc1ccccc1[C@H]1CCc2c(C(=O)N(C)C)cn3c(C)c(C)nc3c2O1 [I, (9R)-2,3-Dimethyl-9-(2-methylphenyl)-7H-8,9-dihydro-pyrano[2,3-c]-Imidazo[1,2-a]pyridine-6-carboxylic acid dimethylamide] | <50%
8 | Cc1nc2c3c(c(C(=O)N(C)C)cn2c1C)CC[C@H](c1ccc(F)cc1)O3 [K, (9R)-9-(4-Fluorophenyl)-2,3dimethyl-7H-8,9-dihydro-pyrano[2,3-c]-imidazo[1,2-a]pyridine-6-carboxylic acid dimethylamide] | <40%

same assay, conditions: dose 2 μmol/kg i.d., anesthetized CD rat, intraduodenal administration

Row | SMILES | Inhibition of acid secretion (%)
9 | Cc1nc2c3c(c(C(N)=O)cn2c1C)CC[C@@H](c1ccccc1)O3 [Example 8, (9S)-2,3-Dimethyl-9-phenyl-7H-8,9-dihydro-pyrano[2,3c]-imidazo[1,2-a]pyridine-6-carboxylic acid amide] | 100%

same assay, conditions: dose 3 μmol/kg i.d., anesthetized CD rat, intraduodenal administration

Row | SMILES | Inhibition of acid secretion (%)
10 | Cc1nc2c3c(c(C(=O)N(C)C)cn2c1C)CC[C@H](c1ccccc1)O3.O=C(O)C(O)C(O)C(=O)O [A, (9R)2,3-Dimethyl-9-phenyl-7H-8,9-dihydro-pyrano[2,3-c]-imidazo[1,2-a]pyridine-6-carboxylic acid dimethylamide (S,S)-tartrate] | <40%
11 | Cc1nc2c3c(c(C(=O)N(C)C)cn2c1C)CC[C@H](c1ccccc1)O3 [B, (9R)-2,3-Dimethyl-9-phenyl-7H-8,9-dihydro-pyrano[2,3-c]-imidazo[1,2-a]pyridine-6-carboxylic acid dimethylamide] | <40%
12 | Cc1nc2c3c(c(C(=O)N(C)C)cn2c1Br)CC[C@H](c1ccccc1)O3 [D, (9R)-3-Bromo-2-methyl-9-phenyl-7H-8,9-dihydro-pyrano[2,3-c]-imidazo[1,2-a]pyridine-6-carboxylic acid dimethylamide] | <40%
13 | CCc1c(C)nc2c3c(c(C(=O)N(C)C)cn12)CC[C@H](c1ccccc1)O3 [E, (9R)-3-Ethyl-2-methyl-9-phenyl-7H-8,9-dihydro-pyrano[2,3-c]-imidazo[1,2-a]pyridine-6-carboxylic acid dimethylamide] | <30%
14 | Cc1nc2c3c(c(C(=O)N(C)C)cn2c1Br)CC[C@@H](c1ccccc1)O3 [Example 4, (9S)-3Bromo-2-methyl-9-phenyl-7H-8,9-dihydro-pyrano[2,3-c]-imidazo[1,2-a]pyridine-6-carboxylic acid dimethylamide] | >60%
15 | CCc1c(C)nc2c3c(c(C(=O)N(C)C)cn12)CC[C@@H](c1ccccc1)O3 [Example 5, (9S)-3-Ethyl-2-methyl-9-phenyl-7H-8,9-dihydro-pyrano[2,3c]-imidazo[1,2-a]pyridine-6-carboxylic acid dimethylamide] | >70%
16 | Cc1nc2c3c(c(C(=O)N4CCCC4)cn2c1C)CC[C@@H](c1ccccc1)O3 [Example 6, (9S)-(2,3-Dimethyl-9-phenyl-7H-8,9-dihydro-pyrano[2,3c]-imidazo[1,2-a]pyridin-6-yl)-pyrrolidin-1-yl methanone] | 100%
17 | Cc1nc2c3c(c(C(=O)N(C)C)cn2c1C)CC[C@@H](c1cccs1)O3 [Example 12, (9S)-2,3-Dimethyl-9-thiophen-2-yl-7H-8,9-dihydro-pyrano[2,3-c]-imidazo[1,2-a]pyridine-6-carboxylic acid dimethylamide] | 100%
18 | COCc1cn2c(C)c(C)nc2c2c1CC[C@@H](c1ccccc1)O2 [Example 13, (9S)-6-Methoxymethyl-2,3-dimethyl-9-phenyl-7H-8,9-dihydro-pyrano[2,3-c]-imidazo[1,2-a]pyridine] | 100%
19 | Cc1nc2c3c(c(C(=O)N4CCCC4)cn2c1C)CC[C@H](c1ccccc1)O3 [F, (9R)-(2,3-Dimethyl-9-phenyl-7H-8,9-dihydro-pyrano[2,3-c]-imidazo[1,2-a]pyridin-6-yl)-pyrrolidin-1-yl methanone] | <40%
20 | CNC(=O)c1cn2c(C)c(C)nc2c2c1CC[C@H](c1ccccc1)O2 [G, (9R)-2,3-Dimethyl-9-phenyl-7H-8,9-dihydro-pyrano[2,3-c]-imidazo[1,2-a]pyridine-6-carboxylic acid methylamide] | <40%
21 | Cc1nc2c3c(c(C(N)=O)cn2c1C)CC[C@H](c1ccccc1)O3 [H, (9R)-2,3-Dimethyl-9-phenyl-7H-8,9-dihydro-pyrano[2,3-c]-imidazo[1,2-a]pyridine-6-carboxylic acid amide] | <40%
22 | Cc1nc2c3c(c(C(=O)N(C)C)cn2c1C)CC[C@H](c1ccccc1F)O3 [J, (9R)-9-(2-Fluorophenyl)-2,3-dimethyl-7H-8,9-dihydro-pyrano[2,3c]-imidazo[1,2-a]pyridine-6-carboxylic acid dimethylamide] | <50%

same assay, conditions: dose 6 μmol/kg i.d., anesthetized CD rat, intraduodenal administration

Row | SMILES | Inhibition of acid secretion (%)
23 | Cc1nc2c3c(c(C(=O)N(C)C)cn2c1CO)CC[C@H](c1ccccc1)O3 [C, (9R)-3-Hydroxymethyl-2-methyl-9-phenyl-7H-8,9-dihydro-pyrano[2,3c]-imidazo[1,2-a]pyridine-6-carboxylic acid dimethylamide] | <30%
24 | Cc1nc2c3c(c(C(=O)N(C)C)cn2c1CO)CC[C@@H](c1ccccc1)O3 [Example 3, (9S)-3-Hydroxymethyl-2-methyl-9-phenyl-7H-8,9-dihydro-pyrano[2,3-c]-imidazo[1,2-a]pyridine-6-carboxylic acid dimethylamide] | >50%
